For this test, the target named is CFTR-mediated chloride transport (Homo sapiens, UniProt P13569). As to the kind of experiment: Corrector Assay A - membrane potential dye assay (enteroid cells). To be noted: for Corrector Assay A % activity: % of chloride transport of triple combination control (1 μM (14S)-dispiro macrocycle + 3 μM tezacaftor + 300 nM ivacaftor); for EC50: read-out: Corrector Assay A EC50, human intestinal enteroid cells, 18-24 h incubation, acute 10 μM forskolin + 300 nM ivacaftor.

Usually EC50 stands for the concentration at which the effect is half-maximal. In the case of `CC(C)(C)c1ccc2c(n1)N1C[C@@H](CCC(c3ccc(CO)cn3)Nc3cccc(n3)S(=O)(=O)NC2=O)CC1(C)C` (stereo partly drawn) [Compound 79, (14S)-8-tert-butyl-17-[5-(hydroxymethyl)pyridin-2-yl]-12,12-dimethyl-2λ^6-thia-3,9,11,18,23-pentaazatetracyclo[17.3.1.111,14.05,10]tetracosa-1(23),5(10),6,8,19,21-hexaene-2,2,4-trione], the “Corrector Assay A % activity” value is “+++ (+++ is >60%)” and the EC50 is less than 1 µM.

For `COC(=O)NCc1ccc(C2CC[C@@H]3CN(c4nc(C(C)(C)C)ccc4C(=O)NS(=O)(=O)c4cccc(n4)N2)C(C)(C)C3)nc1` (stereo partly drawn) [Compound 88], the “Corrector Assay A % activity” value is listed as “+++ (+++ is >60%)” and the EC50 is less than 1 µM.

For `COC(=O)NCc1ccc(C2CC[C@@H]3CN(c4nc(C(C)(C)C)ccc4C(=O)NS(=O)(=O)c4cccc(n4)N2)C(C)(C)C3)nc1` (stereo partly drawn) [Compound 89, Methyl N-({6-[(14S)-8-tert-butyl-12,12-dimethyl-2,2,4-trioxo-2λ^6-thia-3,9,11,18,23-pentaazatetracyclo[17.3.1.111,14.05,10]tetracosa-1(23),5(10),6,8,19,21-hexaen-17-yl]pyridin-3-yl}methyl)carbamate], the “Corrector Assay A % activity” value is recorded as “++ (++ is 30-60%)” and the EC50 was less than 1 µM.

For the compound `COC(=O)CCc1ccc(C2CC[C@@H]3CN(c4nc(C(C)(C)C)ccc4C(=O)NS(=O)(=O)c4cccc(n4)N2)C(C)(C)C3)nc1` (stereo partly drawn) [Compound 90], the “Corrector Assay A % activity” value is recorded as “++ (++ is 30-60%)” and the EC50 is less than 1 µM.

Turning to `COC(=O)CCc1ccc(C2CC[C@@H]3CN(c4nc(C(C)(C)C)ccc4C(=O)NS(=O)(=O)c4cccc(n4)N2)C(C)(C)C3)nc1` (stereo partly drawn) [Compound 91, methyl 3-{6-[(14S)-8-tert-butyl-12,12-dimethyl-2,2,4-trioxo-2λ^6-thia-3,9,11,18,23-pentaazatetracyclo[17.3.1.111,14.05,10]tetracosa-1(23),5(10),6,8,19,21-hexaen-17-yl]pyridin-3-yl}propanoate], the “Corrector Assay A % activity” value is “++ (++ is 30-60%)” and the EC50 is more than 3 µM.

As to `COC(=O)N1CCC(c2ccnc(C3CC[C@@H]4CN(c5nc(C(C)(C)C)ccc5C(=O)NS(=O)(=O)c5cccc(n5)N3)C(C)(C)C4)c2)CC1` (stereo partly drawn) [Compound 96, methyl 4-{2-[(14S)-8-tert-butyl-12,12-dimethyl-2,2,4-trioxo-2λ^6-thia-3,9,11,18,23-pentaazatetracyclo[17.3.1.111,14.05,10]tetracosa-1(23),5(10),6,8,19,21-hexaen-17-yl]pyridin-4-yl}piperidine-1-carboxylate], the “Corrector Assay A % activity” value was “+++ (+++ is >60%)” and the EC50 was less than 1 µM.

For the compound `CC(C)(C)c1ccc2c(n1)N1C[C@@H](CCC(c3ccc(CCC(=O)O)cn3)Nc3cccc(n3)S(=O)(=O)NC2=O)CC1(C)C` (stereo partly drawn) [Compound 97], the “Corrector Assay A % activity” value was “++ (++ is 30-60%)” and the EC50 fell in the range of 1 to 3 µM.

For the compound `CC(C)(C)c1ccc2c(n1)N1C[C@@H](CCC(c3ccc(CCC(=O)O)cn3)Nc3cccc(n3)S(=O)(=O)NC2=O)CC1(C)C` (stereo partly drawn) [Compound 98, 3-{6-[(14S)-8-tert-Butyl-12,12-dimethyl-2,2,4-trioxo-2λ^6-thia-3,9,11,18,23-pentaazatetracyclo[17.3.1.111,14.05,10]tetracosa-1(23),5(10),6,8,19,21-hexaen-17-yl]pyridin-3-yl}propanoic acid], the “Corrector Assay A % activity” value is recorded as “+ (+ is <30%)” and the EC50 was in the range of 1 to 3 µM.

As to `CN(C)Cc1cccc([C@H]2CC[C@@H]3CN(c4nc(C(C)(C)C)ccc4C(=O)NS(=O)(=O)c4cccc(n4)N2)C(C)(C)C3)n1` [Compound 99], the “Corrector Assay A % activity” value is “++ (++ is 30-60%)” and the concentration for a half-maximal effect (EC50) is less than 1 µM.

The record behind these values is patent US20220313698A1, “MODULATORS OF CYSTIC FIBROSIS TRANSMEMBRANE CONDUCTANCE REGULATOR” (Vertex Pharmaceuticals Incorporated, priority 2019, published 2022).
